The values below come from patent US8263406B2, “Enriched or purified population of motor neurons and its preparation from a population of embryonic stem cells” (Cornell Research Foundation, Inc., priority 2003, dated 2012).

In the test the test system is hES cells. In words: Induction of motor neurons from hES cell-derived embryoid bodies, quantified by immunocytochemistry. The note with it: H1 hES-derived EBs, RA 10 uM. It counts as cell-based, human. The text has this:
A modified version of the protocol described in Wichterle et al., “Directed Differentiation of Embryonic Stem Cells into Motor Neurons,” Cell 110:385-397 (2002), which is hereby incorporated by reference in its entirety, was used for induction and differentiation of motor neurons from hES cells (FIG. 1A). For caudalization and specification to motor neurons, 90% confluent hES cell cultures were dissociated to form embryoid bodies (EB) in suspension dishes (Ultra low cluster 6 well plates, […], Mass.). Fresh RA was added every day and fresh medium along with SHH replaced every 72 hrs. After 6-8 days, differentiation of motor neurons was induced by plating the spheres formed onto poly-ornithin/fibronectin coated plates in DMEM/F12 supplemented with N2 (Gibco), GDNF (20 ng/ml), BDNF (20 ng/ml), or neurotrophin 4 (NT4) (20 ng/ml), CNTF (20 ng/ml), B27 (1X) and 2% FBS. After 7-14 days, cultures were either fixed for immunocytochemistry or used for physiology.
Cells were stained at different stages of culture for the following: Tra 1-81 (Mouse IgG, 1:200), SSEA-4 (supernatant, mouse IgG, 1:50, DSHB), βIII-tubulin (mouse IgG; 1:400, Covance), Islet1 (supernatant, mouse IgG, 1:50, Developmental Studies Hybridoma Bank from the University of Iowa (DSHB)), Hb9 (supernatant, mouse IgG, 1:50, DSH), ChAT (Rabbit IgG, 1:200, Chemicon), desmin (Rabbit IgG, 1:200, Sigma), and GFP (mouse IgG, 1:100). […]
To determine if hES cells had the capacity to respond to the caudalizing effects of RA and the ventralizing effects of SHH to generate MNs (Wichterle et al., “Directed Differentiation of Embryonic Stem Cells into Motor Neurons,” Cell 110:385-397 (2002), which is hereby incorporated by reference in its entirety), hES cells were raised to 90% confluency before inducing them to form EBs in suspension cultures. […] After a week in a differentiated condition, the cells were fixed and the percentage of βIII-tubulin expressing neurons was determined. […]

As for `CC1=C(/C=C/C(C)=C/C=C/C(C)=C/C(=O)O)C(C)(C)CCC1` [RA+/SHH−, all-trans retinoic acid], the “percentage of neurons (βIII-tubulin expressing) generated from the differentiated EBs” value (8-9 days in suspension, one week differentiation with FBS/B27/BDNF/GDNF/CNTF, of total population) is “around 30%”. In addition, the “percentage of βIII-tubulin expressing neurons that expressed islet-1/ChAT” value (SHH 200 nM where present, FIG. 2E) is recorded as 3%-10%. Moreover, under “SHH 200 nM where present, FIG. 2F”, the “percentage of βIII-tubulin expressing neurons that expressed Hb9” value is 3%-6%.
